# Like-named read-outs stand apart in the source and are kept apart here.
# How the values were obtained:
# [1] = molecular target: T1, Recombinant human M3 receptor (Homo sapiens, UniProt P20309); assay: Muscarinic Receptor Radioligand Binding Assay ([3H]-NMS, SPA)
# T1 construct: expressed in transfected cells; host or cells: CHO-K1 cells (membranes prepared from them)
# Protocol: The inhibitory effects of compounds of the muscarinic antagonists were determined by a Muscarinic Receptor Radioligand Binding Assay.
# Recombinant human M3 receptor was expressed in CHO-K1 cells. Cell membranes were prepared and binding of [3H]-N-methyl scopolamine ([3H]-NMS) and compounds was assessed by a scintillation proximity assay (SPA). The incubation time was 16 hours at ambient temperature in the presence of 1% (v/v) DMSO. The assay was performed in white 96 well clear-bottomed NBS plates (Corning). Prior to the assay, the CHO cell membranes containing M3 receptor were coated onto SPA WGA (Wheat germ agglutinin) beads (GE Healthcare). Non specific binding was determined in the presence of 1 μM Atropine.
# Radioactivity was measured on a Microbeta scintillation counter (PerkinElmer) using a 3H protocol with a 2 minutes per well read time. […] Concentration dependent inhibition of [3H]-NMS binding by compounds was expressed as pIC50.
# [2] = Dynamic vapour sorption (DVS) analysis of crystalline form; assay type: physicochemical; details: at 80% RH, 25° C., crystalline material
# Protocol: Dynamic vapour sorption (DVS) analysis was performed on a Surface Measurement systems (SMS) DVS-Intrinsic moisture sorption analyser. The instrument was controlled by SMS Analysis Suite software (DVS-Intrinsic Control v1.0.0.30). Analysis of the data was performed using Microsoft Excel 2007 together DVS Standard Analysis Suite (v6.0.0.7). Sample temperature was maintained at 25° C. and the sample humidity was obtained by mixing streams of wet and dry nitrogen at a total flow rate of 200 mlmin^−1. The relative humidity was measured using a calibrated Rotronic probe (dynamic range 1-100% Relative Humidity (RH)) located close to the sample. The weight change of the sample as a function of % RH was constantly monitored by the microbalance (accuracy ±0.005 mg). Typically a PXRD would be run prior to analysis. 20 mg of sample was then placed in a tared stainless steel mesh basket under ambient conditions. The sample was loaded and unloaded at 40% RH and 25° C. (typical room conditions) and the sample subjected to a graduated DVS regime over 2 cycles using the parameters shown in Table 1.
# [3] = Gravimetric Vapour Sorption (GVS) of crystalline forms; assay type: physicochemical; details: at 80% RH, crystalline material
# Protocol: Gravimetric Vapour Sorption (GVS) profiles were measured using a Surface Measurements Systems Dynamic Vapour Sorption DVS-1 or a DVS Advantage instrument. The solid sample ca. 1-5 mg was placed into a glass vessel and the weight of the sample was recorded during a dual cycle step method (40 to 90 to 0 to 90 to 0% relative humidity (RH), in steps of 10% RH).
# [4] = CHO-K1 cell membranes, [3H]-NMS, 16 hours at ambient temperature, 1% DMSO, read-out: Ki in the M3 binding assay
# T1 sequence (P20309 whole entry): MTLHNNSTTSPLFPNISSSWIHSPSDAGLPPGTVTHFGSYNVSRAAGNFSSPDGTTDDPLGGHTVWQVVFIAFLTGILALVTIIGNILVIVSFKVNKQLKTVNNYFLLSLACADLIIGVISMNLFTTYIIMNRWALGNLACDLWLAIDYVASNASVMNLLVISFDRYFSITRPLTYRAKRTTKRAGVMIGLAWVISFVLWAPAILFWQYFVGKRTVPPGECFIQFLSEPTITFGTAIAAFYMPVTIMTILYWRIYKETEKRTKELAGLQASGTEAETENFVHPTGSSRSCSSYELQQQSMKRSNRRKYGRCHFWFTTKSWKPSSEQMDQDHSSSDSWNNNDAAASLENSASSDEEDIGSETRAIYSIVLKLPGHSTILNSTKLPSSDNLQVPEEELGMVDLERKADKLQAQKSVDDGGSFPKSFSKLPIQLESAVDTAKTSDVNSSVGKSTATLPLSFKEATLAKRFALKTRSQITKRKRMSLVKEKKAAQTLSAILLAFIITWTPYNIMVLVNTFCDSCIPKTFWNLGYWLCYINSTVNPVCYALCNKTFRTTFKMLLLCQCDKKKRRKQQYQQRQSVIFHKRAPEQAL
Structure (SMILES),"Ki [1, 4]",further results
"O[C@](c1ccccc1)(c1cc(C[N+]23CCC(CC2)[C@@H](Oc2ccc(F)cc2)C3)on1)C1CCCCC1 [Example 1, (R)-1-[3-((R)-Cyclohexyl-hydroxy-phenyl-methyl)-isoxazol-5-ylmethyl]-3-(4-fluoro-phenoxy)-1-azonia-bicyclo[2.2.2]octane chloride]",0.8 nM,–
"O=S(=O)([O-])c1ccccc1.O[C@](c1ccccc1)(c1cc(C[N+]23CCC(CC2)[C@@H](Oc2ccc(F)cc2)C3)on1)C1CCCCC1 [Example 2, (R)-1-[3-((R)-Cyclohexyl-hydroxy-phenyl-methyl)-isoxazol-5-ylmethyl]-3-(4-fluoro-phenoxy)-1-azonia-bicyclo[2.2.2]octane benzenesulfonate]",–,DVS weight increase [2]: 0.2 % w/w
"O[C@](c1ccccc1)(c1cc(C[N+]23CCC(CC2)[C@@H](Oc2cccc(F)c2)C3)on1)C1CCCCC1 [Example 3, (R)-1-[3-((R)-Cyclohexyl-hydroxy-phenyl-methyl)-isoxazol-5-ylmethyl]-3-(3-fluoro-phenoxy)-1-azonia-bicyclo[2.2.2]octane chloride]",–,Ki [1]: 0.66 nM
"O[C@](c1ccccc1)(c1nnc(C[N+]23CCC(CC2)[C@@H](Oc2ccc(F)cc2)C3)o1)C1CCCCC1 [Example 5, (R)-1-[5-((R)-Cyclohexyl-hydroxy-phenyl-methyl)-[1,3,4]oxadiazol-2-ylmethyl]-3-(4-fluoro-phenoxy)-1-azonia-bicyclo[2.2.2]octane bromide]",0.7 nM,–
"OC(c1ccccc1)(c1ccccc1)c1cc(C[N+]23CCC(CC2)[C@@H](Sc2cccc(F)c2)C3)on1 [Example 6, (R)-3-(3-Fluoro-phenylsulfanyl)-1-[3-(hydroxy-diphenyl-methyl)-isoxazol-5-ylmethyl]-1-azonia-bicyclo[2.2.2]octane bromide]",0.15 nM,–
"Cc1ccc(O[C@H]2C[N+]3(Cc4cc(C(O)(c5ccccc5)c5ccccc5)no4)CCC2CC3)cc1F [Example 7, (R)-3-(3-Fluoro-4-methyl-phenoxy)-1-[3-(hydroxy-diphenyl-methyl)-isoxazol-5-ylmethyl]-1-azonia-bicyclo[2.2.2]octane bromide]",0.4 nM,–
"O[C@](c1ccccc1)(c1cc(C[N+]23CCC(CC2)[C@@H](Oc2cccc(F)c2)C3)on1)C1CCCCC1 [Example 8, (R)-1-[3-((R)-Cyclohexyl-hydroxy-phenyl-methyl)-isoxazol-5-ylmethyl]-3-(3-fluoro-phenoxy)-1-azonia-bicyclo[2.2.2]octane 2-hydroxy-ethanesulfonate]",–,GVS mass increase [3]: 0.15%

# — US20110207770A1, “PHARMACEUTICAL PRODUCT COMPRISING A MUSCARINIC RECEPTOR ANTAGONIST AND A SECOND ACTIVE INGREDIENT” (ASTRAZENECA AB, priority 2008, published 2011)
